Here are results for eight compounds from PubChem BioAssay (NCI).

The structures appear in SMILES notation.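 Growth conditions: 96-well plates. Treatment: test compound, 48 hours, 5 concentrations. Analysis: linear interpolation between bracketing concentrations; unreached endpoints set to highest concentration. The concentration for 50% growth inhibition is given as GI50. The concentration for full growth arrest is given as TGI.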 Where only a bound is given, the exact number is not on record here.

Test systems include MDA-MB-435; UO-31 renal; HT29 colon; HCC-2998 colon; A498 renal; HOP-62 NSCLC; SNB-19 CNS; T-47D breast; SN12C renal; SF-268 CNS.
Assay in all cases: growth of human tumour cells (NCI), 48 h

Regarding `O=[N+]([O-])c1ccc2nc(N/N=C/c3ccc(O)cc3)sc2c1`, the GI50 with MDA-MB-435 is 3.61 µM; with UO-31 renal, 8.22 µM; with HT29 colon, 8.31 µM; in the assay with HCC-2998 colon it was 7.08 µM; in the assay with A498 renal, 5.19 µM; in the assay on HOP-62 NSCLC, 8.82 µM. In addition, the GI50 with SNB-19 CNS was 6.24 µM; in the assay with T-47D breast, 3.01 µM; with SN12C renal it was 4.4 µM; with SF-268 CNS it was 4.84 µM. Further, the TGI with MDA-MB-435 is 91.9 µM; in the assay on UO-31 renal it was greater than 100 µM; with HT29 colon, 28 µM; in the assay on HCC-2998 colon, greater than 100 µM; with A498 renal, 27.2 µM; in the assay with HOP-62 NSCLC, 30.7 µM. The TGI with SNB-19 CNS is greater than 100 µM; with T-47D breast, 13.2 µM; in the assay on SN12C renal, greater than 100 µM; in the assay with SF-268 CNS it was 53.1 µM.

Regarding `N#Cc1cccc(Nc2nccc(-c3cnn4ncccc34)n2)c1`, the GI50 was 0.00628 µM in the assay with MDA-MB-435; 0.00719 µM in the assay with UO-31 renal; 0.00572 µM in the assay on HT29 colon; 0.00695 µM with HCC-2998 colon; 0.00371 µM in the assay with A498 renal; 0.00749 µM in the assay with HOP-62 NSCLC. Also, the GI50 is 0.00702 µM in the assay on SNB-19 CNS, 0.0182 µM with T-47D breast, 0.00674 µM with SN12C renal and 0.00498 µM in the assay with SF-268 CNS. Moreover, the TGI with MDA-MB-435 was 0.0239 µM; in the assay on UO-31 renal, greater than 25 µM; with HT29 colon, 0.034 µM; with HCC-2998 colon, 0.0241 µM; with A498 renal, 0.0091 µM; in the assay on SNB-19 CNS, greater than 25 µM. Moreover, the TGI in the assay with T-47D breast was 0.219 µM; in the assay with SN12C renal, greater than 25 µM; in the assay on SF-268 CNS, 0.3 µM.

For the compound `O=C(Oc1ccc([N+](=O)[O-])cc1)N1CCC(C(O)(c2ccc3c(c2)OCO3)c2ccc3c(c2)OCO3)CC1`, the GI50 in the assay with MDA-MB-435, in the assay with UO-31 renal, with HT29 colon, with HCC-2998 colon, in the assay on A498 renal and in the assay with HOP-62 NSCLC was greater than 100 µM throughout. Moreover, the GI50 in the assay with SNB-19 CNS, in the assay with T-47D breast, in the assay on SN12C renal and in the assay with SF-268 CNS was greater than 100 µM in each case. Further, the TGI in the assay with MDA-MB-435, in the assay with UO-31 renal, in the assay with HT29 colon, in the assay on HCC-2998 colon, with A498 renal and in the assay with HOP-62 NSCLC was greater than 100 µM throughout. Moreover, the TGI in the assay on SNB-19 CNS, in the assay on T-47D breast, in the assay with SN12C renal and in the assay with SF-268 CNS was greater than 100 µM in each case.

Regarding `COCCOC(C)C(/C=N/NC(N)=S)=N/NC(N)=S` (stereo not drawn), the GI50 in the assay on MDA-MB-435 is greater than 100 µM; in the assay with UO-31 renal, 0.0513 µM; with HCC-2998 colon, greater than 100 µM; in the assay with A498 renal, greater than 100 µM; in the assay on HOP-62 NSCLC, greater than 100 µM; with SNB-19 CNS it was greater than 100 µM. In addition, the GI50 in the assay on SN12C renal and in the assay on SF-268 CNS was greater than 100 µM throughout. The TGI with MDA-MB-435, in the assay on UO-31 renal, with HCC-2998 colon, with A498 renal, with HOP-62 NSCLC and in the assay with SNB-19 CNS was greater than 100 µM throughout. The TGI in the assay on T-47D breast, in the assay with SN12C renal and with SF-268 CNS was greater than 100 µM throughout.

In the case of `C=CCSc1n[nH]c(-c2cccs2)n1`, the GI50 with MDA-MB-435, in the assay with UO-31 renal, in the assay with HT29 colon, in the assay with HCC-2998 colon, in the assay on A498 renal and in the assay with HOP-62 NSCLC was greater than 100 µM each time. The GI50 in the assay on SNB-19 CNS, in the assay with T-47D breast, in the assay on SN12C renal and in the assay with SF-268 CNS was greater than 100 µM throughout. Moreover, the TGI with MDA-MB-435, in the assay on UO-31 renal, with HT29 colon, with HCC-2998 colon, in the assay with A498 renal and in the assay on HOP-62 NSCLC was greater than 100 µM in each case. In addition, the TGI in the assay with SNB-19 CNS, in the assay on T-47D breast, in the assay on SN12C renal and in the assay on SF-268 CNS was greater than 100 µM in each case.

As to `Cc1cc(NC(=O)CCc2ccc(N3C(N)=NC(N)=NC3(C)C)cc2)ccc1S(=O)(=O)F`, the GI50 was 0.18 µM with MDA-MB-435; greater than 100 µM with UO-31 renal; less than 0.0374 µM in the assay with HT29 colon; 0.709 µM with HCC-2998 colon; greater than 23.7 µM in the assay with A498 renal; 20.9 µM with HOP-62 NSCLC. Besides, the GI50 in the assay with SNB-19 CNS is 0.269 µM; with T-47D breast, 10.6 µM; in the assay with SN12C renal it was 0.447 µM; in the assay on SF-268 CNS it was 0.524 µM. Besides, the TGI in the assay with MDA-MB-435, in the assay on UO-31 renal, with HT29 colon, in the assay with HCC-2998 colon, in the assay with A498 renal and with HOP-62 NSCLC was greater than 100 µM each time. Moreover, the TGI in the assay with SNB-19 CNS, with T-47D breast, in the assay with SN12C renal and in the assay on SF-268 CNS was greater than 100 µM each time.

On to `CC1=COC2=C(C)C(=O)C(=O)c3c(C)ccc1c32`, for which the TGI was 3.86 µM in the assay on MDA-MB-435; 40.6 µM in the assay on UO-31 renal; 12.8 µM in the assay with HT29 colon; 19.6 µM with HCC-2998 colon; 41.8 µM with A498 renal; greater than 36.9 µM in the assay on HOP-62 NSCLC. Also, the TGI with SNB-19 CNS was greater than 40.5 µM; with T-47D breast, 27.7 µM; in the assay with SN12C renal, 14.1 µM; in the assay on SF-268 CNS, 36.6 µM.

Consider `O=S(=O)(Nc1ccc(Cl)c(C(F)(F)F)c1)c1ccc(-c2cnc(C3CC3)o2)cc1`, for which the GI50 is 0.0658 µM with MDA-MB-435; 0.871 µM in the assay with UO-31 renal; 0.157 µM with HT29 colon; 1.09 µM in the assay with HCC-2998 colon; 0.0814 µM with A498 renal; 0.615 µM in the assay with HOP-62 NSCLC. Moreover, the GI50 was 0.289 µM in the assay with T-47D breast, 1.05 µM with SN12C renal and 1.24 µM with SF-268 CNS. Besides, the TGI with MDA-MB-435 stood at 0.606 µM; with UO-31 renal, 6.25 µM; with HCC-2998 colon it was 3.31 µM; in the assay on A498 renal it was 1.23 µM; in the assay with HOP-62 NSCLC, 4.88 µM; in the assay on T-47D breast it was 8.92 µM. Further, the values for the TGI in the assay with SN12C renal and with SF-268 CNS were 4.71 µM and 10.8 µM, respectively.
